In patent publication US8178512B2, “Methods and compositions for treating diseases and disorders associated with siglec-8” (Johns Hopkins University, priority 2004, dated 2012):
“And” between values parts separate entries of the source, which are not always exact repeats. Equal entries are not always repeated. “Also recorded” adds a separate entry of the source. Where two headings read alike, the source gives them in different places.

Key:
[1] = target: T1, Siglec-8-Ig fusion protein (Homo sapiens, UniProt Q9NYZ4); experiment: Glycan array screening: Siglec-8-Ig binding to biotinylated glycosides on streptavidin-coated 384-well plates; settings: 172 structures screened
T1 construct: The extracellular domain of Siglec-8 was inserted in frame with a Factor Xa cleavage site and the Fc portion of human IgG1; made in house; host or cells: CHOEA1 cells (electroporated), purified from supernatants on Protein A Sepharose
Description: (§1) The extracellular domain of Siglec-8 was inserted in frame with a Factor Xa cleavage site and the Fc portion of human IgG1, expanded in electroporated CHOEA1 cells, and then purified from supernatants (final concentration: 2.4 mg/ml) using Protein A Sepharose as previously described (Kikly, K. K., Bochner, B. S., Freeman, S., Tan, K. B., Gallagher, K. T., D'Alessio, K., Holmes, S. D., Abrahamson, J., Hopson, C. B., Fischer, E. I., Erickson-Miller, C. L., Tachimoto, H., Schleimer, R. P., and White, J. R. (2000) J. Allergy Clin. Immunol. 105, 1093-1100).
Biotinylated glycosides (Korchagina, E., and Bovina, N. V. (1992) Bioorg Khim 18, 283-298) were coated in replicates of n=3 or n=4 on streptavidin-coated microtiter plates (Pierce Reacti-Bind™ NeutrAvidin™ Coated High Binding Capacity Black 384-Well Plates, Product #15513, Rockford, Ill.). Each well was incubated overnight at 4° C. with 30 pmol/well of glycoside in 25 ul phosphate buffered saline (PBS), pH 7.4. The plates were washed three times with 100 ul PBS using an automated plate washer (Molecular Devices, Sunnyvale, Calif.) and stored sealed at 4° C. in 25 ul/well PBS with 0.1% azide until use. Prior to assay, the plates were washed three times with 100 ul/well wash buffer (20 mM Tris-HCl pH 7.4, 150 mM NaCl, 2 mM CaCl2, 2 mM MgCl2 and 0.05% Tween 20). A stock solution of Siglec-8-Ig (30 ug/ml) was added to each well in 25 ul binding buffer (wash buffer plus 1% BSA) and incubated at room temperature for one hour. The plates were washed three times with 100 ul/well wash buffer and incubated for one hour with 25 ul/well goat anti-human IgG-Alexa 488 (Molecular Probes, Cat. No. A11013, Eugene, Oreg.) at 5 ug/ml in binding buffer. The plates were washed and read in 25 ul wash buffer on a Victor 2™ 1420 Multilabel Counter (PerkinElmer Life Sciences, Fremont, Calif.) at excitation 485/emission 535. The current version of the Consortium glycan array can be viewed at:
(http://www.functionalglycomics.org/static/consortium/resources/resourcecoreh.shtml), experiments were initiated to identify compounds that selectively and specifically bind to Siglec-8. Using Siglec-8-Ig fusion protein, a panel of 172 carbohydrate-based structures (see Table 1) was screened for specific Siglec-8 binding. […] The spacer arm itself, —O(CH2)3NH—CO(CH2)5NH-Biotin, found on many of the other non-binding structures, cannot explain the binding activity for Siglec-8.

[2] = target: T2, Siglec-8-Ig (Homo sapiens, UniProt Q9NYZ4); experiment: Binding of Siglec-8-Ig to aminoalkyl glycosides immobilized on activated (N-hydroxysuccinimidyl) glass surfaces; settings: highest concentration tested 300 pmol/spot
T2 construct: The extracellular domain of Siglec-8 was inserted in frame with a Factor Xa cleavage site and the Fc portion of human IgG1; made in house; host or cells: CHOEA1 cells (electroporated), purified from supernatants on Protein A Sepharose
Source text: A description of the printing and evaluation of the full array in this format has been submitted elsewhere (Ola Blixt, Steve Head, Tony Mondala, Christopher Scanlan, Margaret E. Huflejt, Richard Alvarez, Marian C. Bryan, Fabio Fazio, Daniel Calarese, James Stevens, Nahid Razi, David J. Stevens, John J. Skehel, Irma van Die, Dennis Burton, Ian A. Wilson, Richard Cummings, Nicolai Bovin, Chi-Huey Wong, and James C. Paulson ([…]) Proc. Natl. Acad. Sci. USA 101, 17033-17038). FITC-labeled goat anti-human IgG (Fc specific) was from Jackson Immunoresearch (West Grove, Pa.). […]
A solution of 100 μg/ml Siglec-8-Ig and 50 μg/ml FITC-labeled goat anti-human IgG (Fc-specific) in Dulbecco's PBS containing 0.005% Tween 20 was incubated for 30 min at 37° C. to allow complexes to form. […] An image of the bound fluorescence was obtaining using a microarray scanner (ScanArray Express, PerkinElmer Life Sciences, Boston, Mass.). The integrated spot intensities were determined using Metamorph software (Universal Imaging, Downingtown, Pa.). […]

[3] = target: T2, Siglec-8-Ig; experiment: Siglec-8-Ig binding affinity by surface plasmon resonance (SPR), biotinylated glycosides on streptavidin sensor chip; settings: for Siglec-8-Ig binding by SPR (in words): LacNAc reference surface; for Siglec-8-Ig binding by SPR (in words) / Kd: SPR; for Kd: 25° C., equilibrium binding, Siglec-8-Ig 0.1-18 uM, read-out: dissociation constant (Kd) of Siglec-8-Ig binding
Description: as §1
All SPR experiments were performed at 25° C. on a Biacore 3000 instrument (Biacore Inc., Piscataway, N.J.). Biotinylated glycosides were captured on research grade streptavidin (SA) coated sensor chips (Sensor Chip SA, Biacore) that were pre-treated according to the manufacturer's instructions. A solution of each biotinylated glycoside (10 fmol/μl) was injected at 2 μl/min in PBS (pH 7.4) containing 0.005% Tween-20 (running buffer) for varying lengths of time (3-7 minutes) until an optimal amount of glycan was captured on each independent surface. Three related glycosides were studied using one SA sensor chip. […] Increasing concentrations of Siglec-8-Ig (0.1-18 uM) were injected at a flow rate of 60 μl/min over all four surfaces of the sensor chip. […] The equilibrium binding data of Siglec-8-Ig were analyzed by non-linear curve fitting using the BIAevaluation software (Biacore Inc.).
The binding affinities of Siglec-8 for #108, #182 and #181 (FIGS. 3A-C, respectively) were determined on a Biacore B3000 instrument using a streptavidin-coated sensor chip. LacNAc glycoside was captured on one surface of the sensor chip and used as negative control (data not shown).

[4] = system: Siglec-G-Ig fusion protein; settings: Consortium website; cited from earlier work
[5] = target: T3, Siglec-F (Mus musculus, UniProt Q920G3); settings: Consortium website; cited from earlier work
T3 sequence (Q920G3 17-569): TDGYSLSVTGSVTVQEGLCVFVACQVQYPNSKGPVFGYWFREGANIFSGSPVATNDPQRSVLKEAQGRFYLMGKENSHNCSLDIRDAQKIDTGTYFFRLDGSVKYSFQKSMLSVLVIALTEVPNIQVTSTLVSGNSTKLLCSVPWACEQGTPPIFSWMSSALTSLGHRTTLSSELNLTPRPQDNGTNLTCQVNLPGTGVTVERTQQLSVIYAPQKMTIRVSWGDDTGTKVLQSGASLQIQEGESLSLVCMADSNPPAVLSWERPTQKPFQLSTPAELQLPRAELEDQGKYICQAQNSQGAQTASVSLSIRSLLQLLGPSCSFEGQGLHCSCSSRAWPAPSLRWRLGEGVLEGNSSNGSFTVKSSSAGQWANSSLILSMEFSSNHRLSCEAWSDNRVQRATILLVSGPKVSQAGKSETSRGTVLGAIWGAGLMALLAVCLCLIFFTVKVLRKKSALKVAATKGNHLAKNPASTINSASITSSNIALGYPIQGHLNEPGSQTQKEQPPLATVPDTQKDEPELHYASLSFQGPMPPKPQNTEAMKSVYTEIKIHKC

T2 sequence (Q9NYZ4 17-363 limits assumed): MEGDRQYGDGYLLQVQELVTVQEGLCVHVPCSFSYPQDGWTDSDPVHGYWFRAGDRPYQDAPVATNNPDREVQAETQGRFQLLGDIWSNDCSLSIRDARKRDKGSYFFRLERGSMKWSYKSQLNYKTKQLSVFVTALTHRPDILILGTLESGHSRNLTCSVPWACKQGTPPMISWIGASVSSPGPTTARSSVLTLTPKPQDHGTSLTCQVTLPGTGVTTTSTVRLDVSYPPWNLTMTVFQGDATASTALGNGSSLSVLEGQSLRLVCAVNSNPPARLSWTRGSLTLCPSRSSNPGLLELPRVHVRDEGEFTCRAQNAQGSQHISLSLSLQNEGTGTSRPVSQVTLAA
T1 sequence (Q9NYZ4 17-363 limits assumed): as above

## CC(=O)N[C@H]1[C@H](OCCNC(=O)CCCCCNC(=O)CCCCCNC(=O)CCCC[C@@H]2SC[C@@H]3NC(=O)N[C@@H]32)O[C@H](CO)[C@@H](O[C@@H]2O[C@H](CO)[C@H](O)[C@H](O[C@]3(C(=O)O)C[C@H](O)[C@@H](NC(C)=O)[C@H]([C@H](O)[C@H](O)CO)O3)[C@H]2O)[C@@H]1O[C@@H]1O[C@@H](C)[C@@H](O)[C@@H](O)[C@@H]1O [#108, NeuAcα2-3Galβ1-4(Fucα1-3)GlcNAcβ1-O(CH2)2NHCO(CH2)5NHCO(CH2)5NH-Biotin]
[1]; listed as sLe^x
  Siglec-8-Ig binding in glycan array (in words): failed to bind
[2]
  Siglec-8 binding to glycan immobilized on glass slide (in words): did not support any Siglec-8 binding
[3]; listed as sLe^x
  Siglec-8-Ig binding by SPR (in words): failed to support detectable Siglec-8 binding; also recorded: No binding

## CC(=O)N[C@H]1[C@H](OCCCNC(=O)CCCCCNC(=O)CCCC[C@@H]2SC[C@@H]3NC(=O)N[C@@H]32)O[C@H](CO)[C@@H](O[C@@H]2O[C@H](COS(=O)(=O)O)[C@H](O)[C@H](O[C@]3(C(=O)O)C[C@H](O)[C@@H](NC(C)=O)[C@H]([C@H](O)[C@H](O)CO)O3)[C@H]2O)[C@@H]1O[C@@H]1O[C@@H](C)[C@@H](O)[C@@H](O)[C@@H]1O [#181, NeuAcα2-3(6-O-sulfo)Galβ1-4(Fucα1-3)GlcNAcβ1-O(CH2)3NH—CO(CH2)5NH-Biotin]
[1]
  Siglec-8-Ig binding in glycan array (in words): stands out among all the others for binding activity; also recorded: By far the greatest binding
[1]; listed as 6′-sulfo-sLe^x
  Siglec-8-Ig binding in glycan array (in words): avid binding
[4]
  binding to Siglec-G-Ig fusion protein (in words): failed to show specific binding
[3]; SPR sensorgrams
  association and dissociation profiles (in words): very fast association and dissociation profiles
[3]; listed as 6′-sulfo-sLe^x
  Kd: 2300 nM and 2200 to 2300 nM
  Siglec-8-Ig binding by SPR (in words): significant binding; also recorded: reproducible binding
[3]
  Kd: 2000 to 2500 nM
  Siglec-8-Ig binding by SPR (in words): specific binding
[5]
  binding to Siglec-F (in words): selectively binds

## CC(=O)N[C@H]1[C@H](OCCCNC(=O)CCCCCNC(=O)CCCC[C@@H]2SC[C@@H]3NC(=O)N[C@@H]32)O[C@H](COS(=O)(=O)O)[C@@H](O[C@@H]2O[C@H](CO)[C@H](O)[C@H](O[C@]3(C(=O)O)C[C@H](O)[C@@H](NC(C)=O)[C@H]([C@H](O)[C@H](O)CO)O3)[C@H]2O)[C@@H]1O[C@@H]1O[C@@H](C)[C@@H](O)[C@@H](O)[C@@H]1O [#182, NeuAcα2-3Galβ1-4(Fucα1-3)(6-O-Su)GlcNAcβ1-O(CH2)3NH—CO(CH2)5NH-Biotin]
[1]; listed as 6-sulfo-sLe^x
  Siglec-8-Ig binding in glycan array (in words): failed to bind
[2]
  Siglec-8 binding to glycan immobilized on glass slide (in words): did not support any Siglec-8 binding
[3]; listed as 6-sulfo-sLe^x
  Siglec-8-Ig binding by SPR (in words): failed to support detectable Siglec-8 binding; also recorded: No binding

## Galβ1-4GlcNAc [LacNAc, reference compound]
[3]
  Siglec-8-Ig binding by SPR (in words): non-binding
